Where two headings read alike, the source gives them in different places.
Assays:
S. aureus RN450 = test: In Vitro Anti-Bacterial Activity Assay (MIC), gram positive; assay type: cell-based; conditions: Staphylococcus aureus, RN450, 18 h
E. coli mL308 225 = test: In Vitro Anti-Bacterial Activity Assay (MIC), gram negative; assay type: cell-based; conditions: Escherichia coli, ML308225, 18 h
[1] = MIC class, Table 3, read-out: Antibiotic Activity Gram +
[2] = MIC class, Table 3, read-out: Antibiotic Activity Gram −
[3] = MIC class, Table 3 (Continued), read-out: Gram+ activity
[4] = MIC class, Table 3 (Continued), read-out: Gram− activity
[5] = gram positive bacteria, read-out: Antibiotic Activity Gram + (MIC)
[6] = gram negative bacteria, read-out: Antibiotic Activity Gram − (MIC)

## CC(C)COC(=O)NCc1cc(N(C)C)c2c(c1O)C(=O)C1=C(O)[C@]3(O)C(=O)C(C(N)=O)=C(O)[C@H](N(C)C)[C@@H]3C[C@@H]1C2 [EQ]
S. aureus RN450; [1]
  MIC: < 4 µg/mL
E. coli mL308 225; [2]
  MIC: > 4 µg/mL

## COc1ccc(C#Cc2cc(C#Cc3ccc(OC)cc3)c3c(c2O)C(=O)C2=C(O)[C@]4(O)C(=O)C(C(N)=O)=C(O)[C@@H](N(C)C)[C@@H]4C[C@@H]2C3)cc1 [BS]
S. aureus RN450; [1]
  MIC: > 4 µg/mL
E. coli mL308 225; [2]
  MIC: > 4 µg/mL

## CC1c2cccc(O)c2C(=O)C2=C(O)[C@]3(O)C(=O)C(C(N)=O)=C(O)[C@@H](N(C)C)[C@@H]3[C@@H](OC(=O)CCC(=O)O)[C@@H]21 (some centres unmarked)
S. aureus RN450; [3]
  MIC: < 4 µg/mL
E. coli mL308 225; [4]
  MIC: > 4 µg/mL

## CC(C)COC(=O)Nc1cc(N(C)C)c2c(c1O)C(=O)C1=C(O)[C@]3(O)C(=O)C(C(N)=O)=C(O)[C@@H](N(C)C)[C@@H]3C[C@@H]1C2 [DU]
S. aureus RN450; [1]
  MIC: < 4 µg/mL
E. coli mL308 225; [2]
  MIC: > 4 µg/mL

## CN(C)[C@@H]1C(O)=C(C(N)=O)C(=O)[C@@]2(O)C(O)=C3C(=O)c4c(O)ccc(-c5ccc(C(F)(F)F)cc5)c4C[C@H]3C[C@@H]12
S. aureus RN450; [3]
  MIC: < 4 µg/mL
E. coli mL308 225; [4]
  MIC: < 4 µg/mL

## CCc1cc(C(C)(C)C)c(O)c2c1C[C@H]1C[C@H]3[C@H](N(C)C)C(O)=C(C(=O)NC(C)(C)C)C(=O)[C@@]3(O)C(O)=C1C2=O
S. aureus RN450; [5]
  MIC: < 4 µg/mL
E. coli mL308 225; [6]
  MIC: > 4 µg/mL

## CCOP(=O)(OCC)C(Nc1ccc2c(c1O)C(=O)C1=C(O)[C@]3(O)C(=O)C(C(N)=O)=C(O)[C@@H](N(C)C)[C@@H]3[C@@H](O)[C@@H]1[C@H]2C)c1ccccc1 (some centres unmarked)
S. aureus RN450; read-out: Gram+ activity
  MIC: < 4 µg/mL
E. coli mL308 225; read-out: Gram− activity
  MIC: > 4 µg/mL

## CN(C)[C@@H]1C(O)=C(C(N)=O)C(=O)[C@@]2(O)C(O)=C3C(=O)c4c(O)ccc(-c5ccoc5)c4C[C@H]3C[C@@H]12 [drawing 3429]
S. aureus RN450; [5]
  MIC: < 4 µg/mL
E. coli mL308 225; [6]
  MIC: < 4 µg/mL

## CC(=O)Cc1cc(I)c2c(c1O)C(=O)C1=C(O)[C@]3(O)C(=O)C(C(N)=O)=C(O)[C@@H](N(C)C)[C@@H]3C[C@@H]1C2
S. aureus RN450; [5]
  MIC: > 4 µg/mL
E. coli mL308 225; [6]
  MIC: > 4 µg/mL

## CCCCOC(=O)NCc1cc(N(C)C)c2c(c1O)C(=O)C1=C(O)[C@]3(O)C(=O)C(C(N)=O)=C(O)[C@H](N(C)C)[C@@H]3C[C@@H]1C2 [ER]
S. aureus RN450; [1]
  MIC: < 4 µg/mL
E. coli mL308 225; [2]
  MIC: > 4 µg/mL

## COc1ccc(C(=O)Nc2ccc(-c3ccc(O)c4c3C[C@H]3C[C@H]5C(N(C)C)C(O)=C(C(N)=O)C(=O)[C@@]5(O)C(O)=C3C4=O)cc2)cc1 (some centres unmarked) [HT]
S. aureus RN450; [1]
  MIC: < 4 µg/mL
E. coli mL308 225; [2]
  MIC: > 4 µg/mL

## CN(C)[C@@H]1C(O)=C(C(N)=O)C(=O)[C@@]2(O)C(O)=C3C(=O)c4c(O)c(C(C)(C)C)cc(-c5cnc6ccccc6c5)c4C[C@H]3C[C@@H]12
S. aureus RN450; [5]
  MIC: > 4 µg/mL
E. coli mL308 225; [6]
  MIC: > 4 µg/mL

## CCOCc1cccc(-c2ccc(O)c3c2C[C@H]2C[C@H]4[C@H](N(C)C)C(O)=C(C(N)=O)C(=O)[C@@]4(O)C(O)=C2C3=O)c1
S. aureus RN450; [3]
  MIC: < 4 µg/mL
E. coli mL308 225; [4]
  MIC: < 4 µg/mL

## CNC(=O)C1CCN(Cc2cc(N(C)C)c3c(c2O)C(=O)C2=C(O)[C@]4(O)C(=O)C(C(N)=O)=C(O)[C@@H](N(C)C)[C@@H]4C[C@@H]2C3)CC1
S. aureus RN450; [5]
  MIC: < 4 µg/mL
E. coli mL308 225; [6]
  MIC: < 4 µg/mL

## CN(C)c1cc(CN2CCOCC2)c(O)c2c1C[C@H]1C[C@H]3[C@H](N(C)C)C(O)=C(C(N)=O)C(=O)[C@@]3(O)C(O)=C1C2=O
S. aureus RN450; [5]
  MIC: < 4 µg/mL
E. coli mL308 225; [6]
  MIC: > 4 µg/mL

## CN(C)[C@@H]1C(O)=C(C(N)=O)C(=O)[C@@]2(O)C(O)=C3C(=O)c4c(O)ccc(-c5ccc6c(c5)OCO6)c4C[C@H]3C[C@@H]12 [drawing 3286]
S. aureus RN450; [3]
  MIC: < 4 µg/mL
E. coli mL308 225; [4]
  MIC: < 4 µg/mL

## C#CCOC(=O)Nc1ccc2c(c1O)C(=O)C1=C(O)[C@]3(O)C(=O)C(C(N)=O)=C(O)[C@@H](N(C)C)[C@@H]3C[C@@H]1C2
S. aureus RN450; [5]
  MIC: < 4 µg/mL
E. coli mL308 225; [6]
  MIC: < 4 µg/mL

## COc1ccc(/C=C/c2ccc(O)c3c2C[C@H]2C[C@H]4[C@H](N(C)C)C(O)=C(C(N)=O)C(=O)[C@@]4(O)C(O)=C2C3=O)cc1OC
S. aureus RN450; [3]
  MIC: < 4 µg/mL
E. coli mL308 225; [4]
  MIC: < 4 µg/mL

## COC(=O)O[C@@]12C(=O)C(C(N)=O)=C(O)[C@@H](N(C)C)[C@@H]1C[C@@H]1Cc3cccc(O)c3C(=O)C1=C2O
S. aureus RN450; [5]
  MIC: > 4 µg/mL
E. coli mL308 225; [6]
  MIC: > 4 µg/mL

## CN(C)[C@@H]1C(O)=C(C(N)=O)C(=O)[C@@]2(O)C(O)=C3C(=O)c4c(O)ccc(C#CCCC#Cc5ccc(O)c6c5C[C@@]5(C)C[C@@]7(C)[C@H](N(C)C)C(O)C(C(N)=O)C(=O)[C@@]7(O)C(O)=C5C6=O)c4C[C@@]3(C)C[C@@]12C (some centres unmarked)
S. aureus RN450; [5]
  MIC: > 4 µg/mL
E. coli mL308 225; [6]
  MIC: > 4 µg/mL

## CCOC(=O)NCc1cc(N(C)C)c2c(c1O)C(=O)C1=C(O)[C@]3(O)C(=O)C(C(N)=O)=C(O)[C@H](N(C)C)[C@@H]3C[C@@H]1C2 [ES]
S. aureus RN450; [1]
  MIC: < 4 µg/mL
E. coli mL308 225; [2]
  MIC: > 4 µg/mL

## CN(C)C1C(O)=C(C(N)=O)C(=O)[C@@]2(O)C(O)=C3C(=O)c4c(O)ccc(-c5ccc(CNCc6ccccc6)o5)c4C[C@H]3C[C@@H]12 (some centres unmarked) [LL]
S. aureus RN450; [1]
  MIC: < 4 µg/mL
E. coli mL308 225; [2]
  MIC: < 4 µg/mL

Source: US20150141381A1, “TETRACYCLINE COMPOUNDS HAVING TARGET THERAPEUTIC ACTIVITIES” (Paratek Pharmaceuticals, Inc., priority 2001, published 2015)
